Results published in ChEMBL document CHEMBL6120963, “Discovery of Novel PROTAC SIRT6 Degraders with Potent Efficacy against Hepatocellular Carcinoma” (J Med Chem, 2024).
Calls of active or inactive are those of the source. The calls are words filed in the database; no cut-off is given here.

Legend:
[1] = target: T1, Protein cereblon/NAD-dependent protein deacylase sirtuin-6 (Homo sapiens, UniProt Q8N6T7+Q96SW2); assay: PROTAC activity at CRBN/SIRT6 in human SK-HEP1 cells assessed as induction of SIRT6 degradation at 5 uM incubated for 36 hrs by In-Cell ELISA relative to control; assay type: cell-based
Target sequence in this assay (Q8N6T7 2-355 limits assumed): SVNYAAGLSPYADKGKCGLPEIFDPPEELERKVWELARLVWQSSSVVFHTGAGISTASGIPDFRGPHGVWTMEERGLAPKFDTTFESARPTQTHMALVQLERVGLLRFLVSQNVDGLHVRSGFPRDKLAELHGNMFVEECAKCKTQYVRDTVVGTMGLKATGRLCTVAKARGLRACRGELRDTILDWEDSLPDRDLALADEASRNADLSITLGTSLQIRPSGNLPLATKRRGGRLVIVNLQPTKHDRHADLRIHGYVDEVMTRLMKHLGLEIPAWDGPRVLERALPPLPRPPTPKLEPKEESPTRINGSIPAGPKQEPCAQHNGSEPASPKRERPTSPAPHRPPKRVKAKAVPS
Target sequence in this assay (Q96SW2 whole entry partner): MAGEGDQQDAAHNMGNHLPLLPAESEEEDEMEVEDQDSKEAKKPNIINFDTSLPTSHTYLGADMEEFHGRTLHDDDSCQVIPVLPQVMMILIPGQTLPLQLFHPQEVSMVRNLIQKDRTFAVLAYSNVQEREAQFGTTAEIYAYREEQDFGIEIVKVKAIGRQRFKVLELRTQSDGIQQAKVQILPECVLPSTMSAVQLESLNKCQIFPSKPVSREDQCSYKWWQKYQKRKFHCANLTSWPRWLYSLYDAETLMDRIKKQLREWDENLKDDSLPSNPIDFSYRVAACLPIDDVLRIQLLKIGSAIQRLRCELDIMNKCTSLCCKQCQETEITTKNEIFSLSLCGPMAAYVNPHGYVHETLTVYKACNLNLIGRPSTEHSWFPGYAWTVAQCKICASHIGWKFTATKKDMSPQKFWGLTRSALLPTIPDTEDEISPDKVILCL

[2] = target: T1, Protein cereblon/NAD-dependent protein deacylase sirtuin-6; assay: PROTAC activity at CRBN/SIRT6 in human SK-HEP1 cells assessed as induction of SIRT6 degradation at 0.5 uM incubated for 36 hrs by In-Cell ELISA relative to control; assay type: cell-based
Target sequence in this assay (Q8N6T7 2-355 limits assumed): as the sequence (Q8N6T7 2-355 limits assumed) above
Target sequence in this assay (Q96SW2 whole entry partner): as the sequence (Q96SW2 whole entry partner) above

[3] = target: T1, Protein cereblon/NAD-dependent protein deacylase sirtuin-6; assay: PROTAC activity at CRBN/SIRT6 in human SK-HEP1 cells assessed as induction of SIRT6 degradation at 2 to 3 uM incubated for 36 hrs by Western blot analysis; assay type: cell-based; settings: dose 2-3 µM
Target sequence in this assay (Q8N6T7 2-355 limits assumed): as the sequence (Q8N6T7 2-355 limits assumed) above
Target sequence in this assay (Q96SW2 whole entry partner): as the sequence (Q96SW2 whole entry partner) above

[4] = target: T1, Protein cereblon/NAD-dependent protein deacylase sirtuin-6; assay: PROTAC activity at CRBN/SIRT6 in human SK-HEP1 cells assessed as induction of SIRT6 degradation at 2 uM incubated for 36 hrs by In-Cell ELISA relative to control; assay type: cell-based
Target sequence in this assay (Q8N6T7 2-355 limits assumed): as the sequence (Q8N6T7 2-355 limits assumed) above
Target sequence in this assay (Q96SW2 whole entry partner): as the sequence (Q96SW2 whole entry partner) above

[5] = target: T1, Protein cereblon/NAD-dependent protein deacylase sirtuin-6; assay: PROTAC activity at CRBN/SIRT6 in human SK-HEP1 cells assessed as induction of SIRT6 degradation at 200 nM incubated for 36 hrs by In-Cell ELISA relative to control; assay type: cell-based
Target sequence in this assay (Q8N6T7 2-355 limits assumed): as the sequence (Q8N6T7 2-355 limits assumed) above
Target sequence in this assay (Q96SW2 whole entry partner): as the sequence (Q96SW2 whole entry partner) above

[6] = target: T1, Protein cereblon/NAD-dependent protein deacylase sirtuin-6; assay: PROTAC activity at CRBN/SIRT6 in human SK-HEP1 cells assessed as induction of SIRT6 degradation upto 10 uM incubated for 36 hrs by Western blot analysis relative to control; assay type: cell-based
Target sequence in this assay (Q8N6T7 2-355 limits assumed): as the sequence (Q8N6T7 2-355 limits assumed) above
Target sequence in this assay (Q96SW2 whole entry partner): as the sequence (Q96SW2 whole entry partner) above

[7] = target: T1, Protein cereblon/NAD-dependent protein deacylase sirtuin-6; assay: PROTAC activity at CRBN/SIRT6 in human SK-HEP1 cells assessed as hook effect upto 5 uM incubated for 36 hrs by Western blot analysis; assay type: cell-based
SK-HEP1 [8] = assay: Cytotoxicity against human SK-HEP1 cells incubated for 72 hrs by CCK8 assay; assay type: functional, cell-based; settings: SK-HEP1, 72 h
[9] = target: T1, Protein cereblon/NAD-dependent protein deacylase sirtuin-6; assay: PROTAC activity at CRBN/SIRT6 in human SK-HEP1 cells assessed as efficiency of SIRT6 degradation at 2 uM incubated for 36 hrs by Western blot analysis relative to control; assay type: cell-based
[10] = target: T1, Protein cereblon/NAD-dependent protein deacylase sirtuin-6; assay: PROTAC activity at CRBN/SIRT6 in human Huh-7 cells assessed as induction of SIRT6 degradation incubated for 36 hrs by Western blot analysis; assay type: cell-based
Target sequence in this assay (Q8N6T7 whole entry): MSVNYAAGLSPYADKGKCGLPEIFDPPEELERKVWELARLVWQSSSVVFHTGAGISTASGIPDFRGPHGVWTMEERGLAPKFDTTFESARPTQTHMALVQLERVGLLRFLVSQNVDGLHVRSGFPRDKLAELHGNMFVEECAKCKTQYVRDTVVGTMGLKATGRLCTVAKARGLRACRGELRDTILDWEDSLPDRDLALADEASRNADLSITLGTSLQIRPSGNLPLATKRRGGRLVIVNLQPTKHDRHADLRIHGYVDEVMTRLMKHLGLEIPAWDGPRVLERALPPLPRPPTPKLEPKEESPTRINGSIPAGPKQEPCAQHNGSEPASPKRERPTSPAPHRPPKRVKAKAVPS
Target sequence in this assay (Q96SW2 whole entry): as the sequence (Q96SW2 whole entry partner) above

[11] = target: T1, Protein cereblon/NAD-dependent protein deacylase sirtuin-6; assay: PROTAC activity at CRBN/SIRT6 in human SK-HEP1 cells assessed as induction of SIRT6 degradation incubated for 36 hrs by Western blot analysis; assay type: cell-based
[12] = target: T1, Protein cereblon/NAD-dependent protein deacylase sirtuin-6; assay: PROTAC activity at CRBN/SIRT6 in human Huh-7 cells assessed as induction of SIRT6 degradation upto 10 uM incubated for 36 hrs by Western blot analysis relative to control; assay type: cell-based
SK-HEP1 [13] = assay: Induction of SIRT6 degradation in human SK-HEP1 cells at 5 uM incubated for 36 hrs by In-Cell ELISA relative to control; assay type: cell-based
SK-HEP1 [14] = assay: Induction of SIRT6 degradation in human SK-HEP1 cells at 0.5 uM incubated for 36 hrs by In-Cell ELISA relative to control; assay type: cell-based

Row | Structure (SMILES) | Activity [3] | Activity [4] [%] | Activity [5] [%] | also measured
1 | Nc1cc(N2CCN(CCNC(=O)COc3cccc4c3C(=O)N(C3CCC(=O)NC3=O)C4=O)CC2)ccc1[N+](=O)[O-] (stereo not given) |  |  |  | Activity [1]: 72.3%; Activity [2]: 85.7%
2 | Nc1cc(N2CCN(CCOCCOCC(=O)Nc3cccc4c3C(=O)N(C3CCC(=O)NC3=O)C4=O)CC2)ccc1[N+](=O)[O-] (stereo not given) | Active |  |  | Activity [1]: 90.6%; Activity [2]: 46.7%
3 | Nc1cc(N2CCN(CCNCC3CCN(c4cc5c(cc4F)C(=O)N(C4CCC(=O)NC4=O)C5=O)CC3)CC2)ccc1[N+](=O)[O-] (stereo not given) | Active | 84.7 | 60.5 | 
4 | Nc1cc(N2CCN(CCC3CCN(c4ccc5c(c4)C(=O)N(C4CCC(=O)NC4=O)C5=O)CC3)CC2)ccc1[N+](=O)[O-] (stereo not given) | Active | 79.6 | 11.2 | 
5 | Nc1cc(N2CCN(C(=O)CNc3cccc4c3C(=O)N(C3CCC(=O)NC3=O)C4=O)CC2)ccc1[N+](=O)[O-] (stereo not given) |  |  |  | Activity [1]: 15.4%
6 | Nc1cc(N2CCN(CCNCC3CN(c4cc5c(cc4F)C(=O)N(C4CCC(=O)NC4=O)C5=O)C3)CC2)ccc1[N+](=O)[O-] (stereo not given) |  | 83.5 | 46.1 | 
7 | Nc1cc(N2CCN(CCNC(=O)CNc3cccc4c3C(=O)N(C3CCC(=O)NC3=O)C4=O)CC2)ccc1[N+](=O)[O-] (stereo not given) | Active |  |  | Activity [1]: 91.4%; Activity [2]: 86.5%
8 | Nc1cc(N2CCN(CCNCC3C4CN(c5ccc6c(c5)C(=O)N(C5CCC(=O)NC5=O)C6=O)CC34)CC2)ccc1[N+](=O)[O-] (stereo not given) |  | 15.4 |  | 
9 | Nc1cc(N2CCN(CCNCC3C4CN(c5cc6c(cc5F)C(=O)N(C5CCC(=O)NC5=O)C6=O)CC34)CC2)ccc1[N+](=O)[O-] (stereo not given) |  | < 10 |  | 
10 | Nc1cc(N2CCN(CCCCC(=O)Nc3cccc4c3C(=O)N(C3CCC(=O)NC3=O)C4=O)CC2)ccc1[N+](=O)[O-] (stereo not given) |  |  |  | Activity [1]: 49.3%; Activity [2]: 18.2%
11 | Nc1cc(N2CCN(CC3CCN(c4ccc5c(c4)C(=O)N(C4CCC(=O)NC4=O)C5=O)C3)CC2)ccc1[N+](=O)[O-] (stereo not given) | Active | 98.2 | 11.9 | Emax [6]: 96.2%; Activity [7]: inactive; IC50 (SK-HEP1 [8]): 2190 nM; Activity [9]: > 95%; DC50 [10]: 360 nM; DC50 [11]: 91.5 nM; Activity ([11]; dose 0.02-5 µM): Dose-dependent-effect; Emax [12]: 78.5%
12 | Nc1cc(N2CCN(CC3CCCN(c4ccc5c(c4)C(=O)N(C4CCC(=O)NC4=O)C5=O)C3)CC2)ccc1[N+](=O)[O-] (stereo not given) | Active | 87.1 | < 10 | 
13 | Nc1cc(N2CCN(CCCC3CCN(c4ccc5c(c4)C(=O)N(C4CCC(=O)NC4=O)C5=O)CC3)CC2)ccc1[N+](=O)[O-] (stereo not given) | Active | 98.9 | 84.9 | 
14 | Nc1cc(N2CCN(CCOCCOCCOCCOCC(=O)Nc3cccc4c3C(=O)N(C3CCC(=O)NC3=O)C4=O)CC2)ccc1[N+](=O)[O-] (stereo not given) |  |  |  | Activity [2]: 27.8%
15 | Nc1cc(N2CCN(CCCCCC(=O)Nc3cccc4c3C(=O)N(C3CCC(=O)NC3=O)C4=O)CC2)ccc1[N+](=O)[O-] (stereo not given) |  |  |  | Activity [1]: 36.8%; Activity [2]: 47.8%
16 | Nc1cc(N2CCN(CC(=O)Nc3cccc4c3C(=O)N(C3CCC(=O)NC3=O)C4=O)CC2)ccc1[N+](=O)[O-] (stereo not given) |  |  |  | Activity [1]: 17.4%; Activity [2]: < 5%
17 | Nc1cc(N2CCN(CCC(=O)Nc3cccc4c3C(=O)N(C3CCC(=O)NC3=O)C4=O)CC2)ccc1[N+](=O)[O-] (stereo not given) |  |  |  | Activity [1]: 47.2%; Activity [2]: 25.6%
18 | Nc1cc(N2CCN(CCC3CCN(c4cc5c(cc4F)C(=O)N(C4CCC(=O)NC4=O)C5=O)CC3)CC2)ccc1[N+](=O)[O-] (stereo not given) |  | 19.8 | < 10 | 
19 | Nc1cc(N2CCN(CC3CCN(c4cc5c(cc4F)C(=O)N(C4CCC(=O)NC4=O)C5=O)C3)CC2)ccc1[N+](=O)[O-] (stereo not given) | Active | 99.8 | 94.5 | 

Row | Structure (SMILES) | Activity [3] | Activity [4] [%] | Activity [5] [%] | also measured
20 | Nc1cc(N2CCN(CCNCC3CCCN(c4ccc5c(c4)C(=O)N(C4CCC(=O)NC4=O)C5=O)C3)CC2)ccc1[N+](=O)[O-] (stereo not given) |  | 51.6 | 74.2 | 
21 | Nc1cc(N2CCN(CC3C4CN(c5ccc6c(c5)C(=O)N(C5CCC(=O)NC5=O)C6=O)CC34)CC2)ccc1[N+](=O)[O-] (stereo not given) |  | 17.8 |  | 
22 | Nc1cc(N2CCN(CC3C4CN(c5cc6c(cc5F)C(=O)N(C5CCC(=O)NC5=O)C6=O)CC34)CC2)ccc1[N+](=O)[O-] (stereo not given) | Active | 95.6 | 89.4 | 
23 | Nc1cc(N2CCN(CCNCCCC3CCN(c4ccc5c(c4)C(=O)N(C4CCC(=O)NC4=O)C5=O)CC3)CC2)ccc1[N+](=O)[O-] (stereo not given) | Active | 82.4 | 53.2 | 
24 | Nc1cc(N2CCN(CCNCC3CCN(c4ccc5c(c4)C(=O)N(C4CCC(=O)NC4=O)C5=O)C3)CC2)ccc1[N+](=O)[O-] (stereo not given) |  | < 10 |  | 
25 | Nc1cc(N2CCN(CCNCCC3CCN(c4cc5c(cc4F)C(=O)N(C4CCC(=O)NC4=O)C5=O)CC3)CC2)ccc1[N+](=O)[O-] (stereo not given) | Active | 74.8 |  | 
26 | Nc1cc(N2CCN(CC3CCCN(c4cc5c(cc4F)C(=O)N(C4CCC(=O)NC4=O)C5=O)C3)CC2)ccc1[N+](=O)[O-] (stereo not given) |  | 56.6 | < 10 | Activity [7]: inactive
27 | Nc1cc(N2CCN(CCNCCC3CCN(c4ccc5c(c4)C(=O)N(C4CCC(=O)NC4=O)C5=O)CC3)CC2)ccc1[N+](=O)[O-] (stereo not given) |  | 73.6 | 49.3 | 
28 | Nc1cc(N2CCN(CCNCC3CCN(c4ccc5c(c4)C(=O)N(C4CCC(=O)NC4=O)C5=O)CC3)CC2)ccc1[N+](=O)[O-] (stereo not given) |  | < 10 |  | 
29 | Nc1cccc2c1C(=O)N(C1CCC(=O)NC1=O)C2=O (stereo not given) |  |  |  | Activity (SK-HEP1 [13]): 10.9%; Activity (SK-HEP1 [14]): 6.5%
30 | Nc1cc(N2CCN(CCOCCOCCOCC(=O)Nc3cccc4c3C(=O)N(C3CCC(=O)NC3=O)C4=O)CC2)ccc1[N+](=O)[O-] (stereo not given) | Active |  |  | Activity [1]: 80.8%; Activity [2]: 44.9%
31 | Nc1cc(N2CCN(CCNCCCC3CCN(c4cc5c(cc4F)C(=O)N(C4CCC(=O)NC4=O)C5=O)CC3)CC2)ccc1[N+](=O)[O-] (stereo not given) | Active | 97.9 | 64.3 | 
32 | Nc1cc(N2CCN(CC3CN(c4ccc5c(c4)C(=O)N(C4CCC(=O)NC4=O)C5=O)C3)CC2)ccc1[N+](=O)[O-] (stereo not given) |  | 11 | 50.6 | 
33 | Nc1cc(N2CCN(CCNCC3CCCN(c4cc5c(cc4F)C(=O)N(C4CCC(=O)NC4=O)C5=O)C3)CC2)ccc1[N+](=O)[O-] (stereo not given) | Active | 98.5 | 81.2 | 
34 | Nc1cc(N2CCN(C(=O)COc3cccc4c3C(=O)N(C3CCC(=O)NC3=O)C4=O)CC2)ccc1[N+](=O)[O-] (stereo not given) |  |  |  | Activity [1]: 15.8%; Activity [2]: 32.2%
35 | Nc1cc(N2CCN(CCNCC3CCN(c4cc5c(cc4F)C(=O)N(C4CCC(=O)NC4=O)C5=O)C3)CC2)ccc1[N+](=O)[O-] (stereo not given) | Active | 78.4 | 66.2 | 
36 | Nc1cc(N2CCN(CCCC(=O)Nc3cccc4c3C(=O)N(C3CCC(=O)NC3=O)C4=O)CC2)ccc1[N+](=O)[O-] (stereo not given) |  |  |  | Activity [1]: 87.3%; Activity [2]: 72.1%
37 | Nc1cc(N2CCN(CC3CN(c4cc5c(cc4F)C(=O)N(C4CCC(=O)NC4=O)C5=O)C3)CC2)ccc1[N+](=O)[O-] (stereo not given) |  | 20.6 | < 10 | 
